Measurements taken from US9115117B2, “Substituted piperidine compounds and their use as orexin receptor modulators” (JANSSEN PHARMACEUTICA NV, priority 2013, dated 2015).

What was measured:
rat orexin 1 receptor = rat orexin 1 receptor (Rattus norvegicus, UniProt P56718); experiment: Rat orexin 1 receptor radioligand binding; conditions: HEK293 cells stably expressing rat orexin 1 receptor; apparent Ki; read-out: rOX1 Ki
How it was run: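 Homogenized cell suspensions competed against 4 nM final of a tritiated oxadiazolyl-pyrrolidinyl thiazole methanone radioligand (35.3 Ci/mmol) in PBS, with DMSO ≤0.1%. Nonspecific binding defined with 10 μM almorexant; after washing and drying, bound radioactivity counted by scintillation.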

human orexin 1 receptor = human orexin 1 receptor (Homo sapiens, UniProt O43613); experiment: Human orexin 1 receptor radioligand binding; conditions: CHO cells stably expressing human orexin 1 receptor; apparent Ki; read-out: hOX1 Ki
How it was run: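 Homogenized CHO cells stably expressing human orexin 1 receptor, in PBS. They were incubated 60 min at room temperature with 4 nM final tritiated thiazolyl-pyrrolidinyl-methanone radioligand, DMSO ≤0.1%. Nonspecific binding taken with 10 μM almorexant; bound radioactivity collected by GF/C filtration and scintillation-counted.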

human orexin 2 receptor = human orexin 2 receptor (Homo sapiens (Human), UniProt O43614); experiment: Human orexin 2 receptor radioligand binding ([3H]-EMPA); conditions: HEK293 stably expressing human orexin 2 receptor; [3H]-EMPA; apparent Ki; read-out: hOX2 Ki
How it was run: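 Competition binding with 2 nM final [3H]-EMPA in PBS against homogenized whole-cell suspension; DMSO ≤0.1%. Nonspecific binding defined with […] almorexant. Plates washed with PBS, dried, and bound radioactivity counted by scintillation.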

Chain of human orexin 2 receptor (O43614 whole entry): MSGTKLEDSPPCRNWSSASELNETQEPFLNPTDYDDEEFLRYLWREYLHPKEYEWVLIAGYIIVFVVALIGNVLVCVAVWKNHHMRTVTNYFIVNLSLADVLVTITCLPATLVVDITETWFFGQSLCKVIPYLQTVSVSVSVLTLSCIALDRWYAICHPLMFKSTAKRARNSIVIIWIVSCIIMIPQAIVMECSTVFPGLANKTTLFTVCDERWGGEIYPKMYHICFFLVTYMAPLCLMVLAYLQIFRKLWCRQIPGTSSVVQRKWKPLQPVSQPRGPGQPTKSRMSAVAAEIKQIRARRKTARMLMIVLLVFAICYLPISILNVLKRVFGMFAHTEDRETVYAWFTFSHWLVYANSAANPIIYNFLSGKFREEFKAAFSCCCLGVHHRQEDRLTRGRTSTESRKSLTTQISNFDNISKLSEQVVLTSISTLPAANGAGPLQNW

Compound	Ki (rat orexin 1 receptor) [nM]	Ki (human orexin 1 receptor) [nM]	Ki (human orexin 2 receptor) [nM]
Cc1ccc(C(=O)N2CCC[C@@H](Nc3ccc(C(F)(F)F)cn3)[C@@H]2C)c(-n2ccnn2)n1 [Example 93, (6-methyl-2-(1H-1,2,3-triazol-1-yl)pyridin-3-yl)((2S,3R)-2-methyl-3-((5-(trifluoromethyl)pyridin-2-yl)amino)piperidin-1-yl)methanone]	52	38	2700
Cc1cnc(C(=O)N2CCC[C@@H](Nc3ncc(C(F)(F)F)cn3)[C@@H]2C)c(-n2nccn2)c1 [Example 94, ((2S,3R)-2-methyl-3-((5-(trifluoromethyl)pyrimidin-2-yl)amino)piperidin-1-yl)(5-methyl-3-(2H-1,2,3-triazol-2-yl)pyridin-2-yl)methanone]	38	25	> 10000
COc1ccc(C(=O)N2CCC[C@@H](Nc3ncc(C(F)(F)F)cn3)[C@@H]2C)c(-n2nccn2)c1 [Example 95, (4-methoxy-2-(2H-1,2,3-triazol-2-yl)phenyl)((2S,3R)-2-methyl-3-((5-(trifluoromethyl)pyrimidin-2-yl)amino)piperidin-1-yl)methanone]	81	103	> 10000
Cc1ccc(C(=O)N2CCC[C@@H](Nc3ccc(C(F)(F)F)cn3)[C@@H]2C)c(-n2nccn2)n1 [Example 98, (6-methyl-2-(2H-1,2,3-triazol-2-yl)pyridin-3-yl)((2S,3R)-2-methyl-3-((5-(trifluoromethyl)pyridin-2-yl)amino)piperidin-1-yl)methanone]	26	12	> 10000
Cc1ccc(C(=O)N2CCC[C@@H](Nc3ccc(Cl)cn3)[C@@H]2C)c(-n2nccn2)c1 [Example 99, ((2S,3R)-3-((5-chloropyridin-2-yl)amino)-2-methylpiperidin-1-yl)(4-methyl-2-(2H-1,2,3-triazol-2-yl)phenyl)methanone]	23	15	1400
Cc1cnc(C(=O)N2CCC[C@@H](Oc3ncc(C(F)(F)F)cn3)[C@@H]2C)c(-n2nccn2)c1 [Example 101, ((2S,3R)-2-methyl-3-((5-(trifluoromethyl)pyrimidin-2-yl)oxy)piperidin-1-yl)(5-methyl-3-(2H-1,2,3-triazol-2-yl)pyridin-2-yl)methanone]	215	446	> 10000
C[C@H]1[C@H](Oc2ncc(C(F)(F)F)cn2)CCCN1C(=O)c1ccccc1-n1nccn1 [Example 103, (2-(2H-1,2,3-triazol-2-yl)phenyl)((2S,3R)-2-methyl-3-((5-(trifluoromethyl)pyrimidin-2-yl)oxy)piperidin-1-yl)methanone]	44	97	2300
Cc1ccc(-n2nccn2)c(C(=O)N2CCC[C@@H](Oc3ncc(C(F)(F)F)cn3)[C@@H]2C)n1 [Example 104, ((2S,3R)-2-methyl-3-((5-(trifluoromethyl)pyrimidin-2-yl)oxy)piperidin-1-yl)(6-methyl-3-(2H-1,2,3-triazol-2-yl)pyridin-2-yl)methanone]	119	173	> 10000

Continued by falling Ki (rat orexin 1 receptor), values first:

Ki (rat orexin 1 receptor) [nM]	Ki (human orexin 1 receptor) [nM]	Ki (human orexin 2 receptor) [nM]	Compound
81	47	3900	Cc1ccc(C(=O)N2CCC[C@@H](Nc3cnc(C(F)(F)F)cn3)[C@@H]2C)c(-n2ccnn2)n1 [Example 96, (6-methyl-2-(1H-1,2,3-triazol-1-yl)pyridin-3-yl)((2S,3R)-2-methyl-3-((5-(trifluoromethyl)pyrazin-2-yl)amino)piperidin-1-yl)methanone]
44	32	6100	COc1ccc(C(=O)N2CCC[C@@H](Nc3ccc(C(F)(F)F)cn3)[C@@H]2C)c(-n2nccn2)c1 [Example 97, (4-methoxy-2-(2H-1,2,3-triazol-2-yl)phenyl)((2S,3R)-2-methyl-3-((5-(trifluoromethyl)pyridin-2-yl)amino)piperidin-1-yl)methanone]
28	25	5200	Cc1ccc(C(=O)N2CCC[C@@H](Oc3ncc(C(F)(F)F)cn3)[C@@H]2C)c(-n2nccn2)c1 [Example 102, (4-methyl-2-(2H-1,2,3-triazol-2-yl)phenyl)((2S,3R)-2-methyl-3-((5-(trifluoromethyl)pyrimidin-2-yl)oxy)piperidin-1-yl)methanone]
8	12	562	Cc1ccc(C(=O)N2CCC[C@@H](Oc3ccc(C(F)(F)F)cn3)[C@@H]2C)c(-n2nccn2)c1 [Example 112, (4-methyl-2-(2H-1,2,3-triazol-2-yl)phenyl)((2S,3R)-2-methyl-3-((5-(trifluoromethyl)pyridin-2-yl)oxy)piperidin-1-yl)methanone]
